Columns and labels:
[1] = molecular target: T1, BLT2-expressing cells (CHO-BLT2 cells) (Homo sapiens, UniProt Q9NPC1); experiment: MTT cell growth of LTB4-stimulated BLT2-expressing cells; assay type: cell-based; details: LTB4 300 nM; for cell growth compared with the control DMSO: pre-treated at 10 μM; for inhibition at 10 µM: read-out: growth inhibitory effect
T1 construct: HA; expressed in transfected cells
T1 sequence (Q9NPC1 with tags, fused parts or gaps): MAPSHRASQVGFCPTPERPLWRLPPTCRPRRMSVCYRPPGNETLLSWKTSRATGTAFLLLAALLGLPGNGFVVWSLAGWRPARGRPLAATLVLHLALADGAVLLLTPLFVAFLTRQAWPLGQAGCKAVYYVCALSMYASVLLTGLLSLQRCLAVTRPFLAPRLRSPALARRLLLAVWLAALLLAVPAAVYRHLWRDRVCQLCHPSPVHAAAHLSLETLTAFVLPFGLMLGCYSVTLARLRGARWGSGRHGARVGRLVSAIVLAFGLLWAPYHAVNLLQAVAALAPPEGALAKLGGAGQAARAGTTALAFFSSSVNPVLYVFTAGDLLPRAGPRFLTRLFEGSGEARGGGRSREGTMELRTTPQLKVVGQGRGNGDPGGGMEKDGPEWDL
Experimental: Cell viability according to treatment of the compounds prepared in the examples were measured by a 3-(4,5-dimethylthiazol-2-yl)-2,5-diphenyltetrazolium bromide (MTT) method.
More specifically, 1×10^4 each of the BLT2-nonexpressing cells (CHO-pcDNA3.1 cells) and BLT2-expressing cells (CHO-BLT2 cells), which were prepared in Experimental Example 1, were dispensed in a […], and cultured for 24 hours. Afterward, the culture medium was removed, a serum-free RPMI medium was added, and after two hours, the cells were pre-treated with each of the compound prepared in one of the examples (10 μM), 10 μM DMSO (compound solvent) as a control, and 10 μM 1-[5-ethyl-2-hydroxy-4-[[6-methyl-6-(1H-tetrazol-5-yl)heptyl]oxy]phenyl]-ethanone (LY255283; Cayman) as a positive control for 1 hour. Subsequently, after treatment of LTB4 (300 nM), the cells were cultured for 24 hours. 20 μL of an MTT solution (5 mg/mL, Sigma-Aldrich) was added to each well, the cells were cultured in a humid CO2 incubator at 37° C. for 4 hours, a supernatant was removed, and 200 μL of DMSO was added to each well to dissolve insoluble violet formazan crystals. Absorbance was measured using a microplate reader (Molecular Devices, Sunnyvale, Calif.) at 550 nm, and the measurement was repeated three times.

BLT2 = molecular target: T2, BLT2 (Homo sapiens, UniProt Q9NPC1); experiment: LTB4-induced chemotactic motility, Transwell, CHO-BLT2 cells; assay type: cell-based; details: LTB4 300 nM; for inhibition at 10 µM: read-out: chemotactic motility inhibited compared with LTB4 (DMSO+)
T2 construct: HA; expressed in transfected cells
T2 sequence (Q9NPC1 with tags, fused parts or gaps): T1 sequence (Q9NPC1 with tags, fused parts or gaps)
Experimental: (§1) Chemotactic motility was analyzed using a Transwell chamber including a polycarbonate filter (8-μm pore size, Corning Costar) with a 6.5-mm diameter. Specifically, the lower surface of the filter was coated with 10 μg/mL fibronectin in a serum-free RPMI 1640 medium at 37° C. for 1 hour. The experiment was performed by placing the filter dried and coated with RPMI 1640 media containing various amounts of LTB4 in the lower wells of the Transwell chamber, and loading CHO cells stably expressing BLT1 and BLT2 into the upper wells containing serum-free RPMI 1640 media finally at 2×10^4 cells/100 μL. To evaluate the effect of inhibitors, the cells were pre-treated with each inhibitor for 30 minutes before dispensing. After the cells were cultured at 37° C. in 5% CO2 for 3 hours, the filters were fixed with methanol for 3 minutes, and stained with hematoxylin and eosin for 10 minutes. In the experiment, the cells were BLT2-expressing cells (CHO-BLT2 cells) and BLT1-expressing cells (CHO-BLT1 cells), and LY255283 and U75302 were used as positive controls for each type of the cells, and BLT2 ligand LTB4, (300 nM), BLT1 ligand LTB4 (10 nM), and lysophosphatidic acid (LPA; 100 nM) were used as comparative controls. The chemotactic motility was quantitatively analyzed by counting the cells on the lower side of the filter under an optical microscope (magnification, 200×). For each analysis, 6 fields were subjected to counting, each sample was analyzed twice, and the analysis was repeated three times.

BLT1 = molecular target: T3, BLT1 (Homo sapiens, UniProt Q15722); experiment: LTB4-induced chemotactic motility, Transwell, CHO-BLT1 cells; assay type: cell-based; details: 10 μM pre-treatment, LTB4 10 nM
T3 construct: expressed in transfected cells; host or cells: CHO cells stably expressing BLT1 (CHO-BLT1)
Experimental: as §1

[2] = system: cancer cells (MDA-MB-231); experiment: Metastasis of breast cancer cells in nude mice; assay type: in vivo; details: MDA-MB-231 in nude mice, i.p.; LMT-696 and LY255283 2.5 mg/kg, U75302 0.25 mg/kg; 15 weeks
Experimental: An experiment for the metastasis of breast cancer cells according to the treatment of the compound of the present invention was approved by the Ethics Committee of Korea University, and all experimental animals used in this experiment were treated according to the approved guidelines of the Korea University Animal Care and Use Committee. Six-week-old female nude mice (Charles River, Wilmington, Mass.) were injected with cancer cells to confirm cancer cell metastasis. The breast cancer cells were pre-treated with the compound of the present invention (LMT-696, 10 μM), LY255283, U75302 and DMSO, and 24 hours later, harvested with trypsin-EDTA, resuspended in PBS, and then 2×10^6 of the breast cancer cells were intraperitoneally injected into mice anesthetized with zoletil (50 mg/kg). After five days, the compound of the present invention (LMT-696; 2.5 mg/kg), LY255283 (2.5 mg/kg), U75302 (0.25 mg/kg) and DMSO were injected intraperitoneally three times every five days. At 15 weeks after the injection of the breast cancer cells, the mice were dissected to observe the cancer cell metastasis.

[3] = system: asthma-induced mice (OVA+LPS); experiment: OVA+LPS-induced severe asthma mice: AHR and cell influx; assay type: in vivo; details: 10 mg/kg, airway constrictor 50 mg/ml
Excerpt: Mast cells play a pivotal role in the initial reaction to asthma, and when an allergen enters the body from the outside through an airway, the mast cells are activated, thereby secreting various cytokines (interleukin-4 and interleukin-13). Due to the cytokines, the influx of inflammatory cells, the generation of mucus and the airway contraction occur. The inventors used 7-week-old (18 to 20 g) female BALB/c mice provided by Orient (Seoungnam, Korea) for the experiment to confirm the antiasthma effect, and then the asthma was induced in the mice. On the first and 14th days, 2.5 mg of an adjuvant, aluminum hydroxide gel (alum; Pierce, Rockford, Ill.) was included in […] of ovalbumin (OVA) to intraperitoneally sensitize female […] mice. On the 21st, 22nd and 23rd days of two initial sensitizations, 1% OVA was sprayed into the mice using an ultrasonic nebulizer. The compound of the present invention (LMT-696; 5 mg/kg), LY255283 (5 mg/kg, Cayman) or DMSO was intraperitoneally injected at the 1 hour before the 1% OVA spraying. On the 24th day of the initial sensitization, airway hyperresponsiveness (AHR) was detected, and on the 25th day, the mice were dissected to observe asthma phenotypes, for example, inflammatory cytokine IL-4 expression and the influx of inflammatory cells (neutrophils). In the case of lipopolysaccharide (LPS)-induced severe asthma animal models, on the 0, 1st, 2nd and 7th days, 75 μg of OVA and 1 mg of LPS were intranasally injected into Balb/c mice for sensitization. On the 14th, 15th, 21th and 22th days, 50 μg of OVA was injected into the nose for a challenge. The compound of the present invention (LMT-1013) (1, 3, 10 or 30 mg/kg), montelukast (10 mg/kg, DRS) or a control buffer (10% DMA, 5% Tween 80, 85% brine) were treated one hour before the challenge by injecting 50 μg of OVA into the nose. On the 23rd day of the initial sensitization, AHR was detected, and on the 24th day, the mice were dissected to observe a severe asthma phenotype, for example, the influx of the inflammatory cells (neutrophils). In addition, the AHR detection was performed after an airway constrictor, methacholine (6.25 to 50 mg/ml depending on conditions), was administered to the mice. The administration of the airway constrictor was performed by spraying through an inlet of the chamber using an ultrasonic nebulizer for 3 minutes. The AHR was analyzed using an enhanced pause as the indicator of the asthma phenomenon. Bronchoalveolar lavage fluid cell counts were quantified by counting cells under an optical microscope (magnification, 200×). In each analysis, 4 fields were subjected to counting, each sample was analyzed twice, and the analysis was repeated three times.

T3 sequence (Q15722 whole entry, species assumed): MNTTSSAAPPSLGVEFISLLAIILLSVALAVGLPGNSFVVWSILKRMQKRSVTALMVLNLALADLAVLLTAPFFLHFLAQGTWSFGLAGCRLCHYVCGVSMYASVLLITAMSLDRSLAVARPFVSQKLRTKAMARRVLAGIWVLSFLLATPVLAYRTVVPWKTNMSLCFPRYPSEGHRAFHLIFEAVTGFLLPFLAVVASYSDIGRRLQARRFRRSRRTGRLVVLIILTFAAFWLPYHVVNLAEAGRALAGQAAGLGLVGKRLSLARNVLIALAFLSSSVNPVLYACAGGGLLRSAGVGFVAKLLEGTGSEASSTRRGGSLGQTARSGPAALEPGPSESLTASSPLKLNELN

CCCCC(=O)N(CC#Cc1ccc(C(=O)N2CCN(C)CC2)cc1)c1ccccc1 [LMT-692, N-(3-(4-(4-methylpiperazine-1-carbonyl)phenyl)prop-2-ynyl)-N-phenylpentanamide] was tested, and the “cell growth compared with the control DMSO” value [1] was 88.0%, the inhibition at 10 µM (BLT2; 10 μM pre-treatment) was 66% and the IC50 (BLT2; serum-free, read-out: IC50 of chemotactic motility inhibition) was 7.57 µM. For the same compound, the “inhibitory effect on chemotactic motility” value (BLT1) was “did not exhibit the inhibitory effect”.
CCCCC(=O)N(CC#Cc1ccc(C(=O)N2CCNCC2)cc1)c1ccccc1 [LMT-694, N-phenyl-N-(3-(4-(piperazine-1-carbonyl)phenyl)prop-2-ynyl)pentanamide] was tested, and the “cell growth compared with the control DMSO” value [1] was 16.7%, the inhibition at 10 µM (BLT2; 10 μM pre-treatment) was 90% and the “inhibitory effect on chemotactic motility” value (BLT1) was “did not exhibit the inhibitory effect”.
CCCCC(=O)N(CC#Cc1cccc(C(=O)N2CCNCC2)c1)c1ccccc1 [LMT-837, N-phenyl-N-(3-(3-(piperazine-1-carbonyl)phenyl)prop-2-ynyl)pentaneamide] gave an inhibition at 10 µM [1] of 65%.
With CCCCC(=O)N(CC#Cc1ccc(C(=O)N2CCN(C(C)C)CC2)cc1)c1ccc(F)cc1 [LMT-841, N-(4-fluorophenyl)-N-(3-(4-(4-isopropylpiperazine-1-carbonyl)phenyl)prop-2-ynyl)pentaneamide] the inhibition at 10 µM [1] was 60%.
In the case of CCCCC(=O)N(CC#Cc1cccc(C(=O)N2CCN(C(C)C)CC2)c1)c1ccccc1 [LMT-842, N-(3-(3-(4-isopropylpiperazine-1-carbonyl)phenyl)prop-2-ynyl)-N-phenylpentaneamide], the inhibition at 10 µM [1] is reported as 70%.
With CCCCC(=O)N(CC#Cc1ccc(C(=O)N(CC)CC)cc1)c1ccccc1 [LMT-883, N,N-diethyl-4-(3-(N-phenylpentaneamido)prop-1-ynyl)benzamide] the inhibition at 10 µM [1] was 99%.
For CCCCC(=O)N(CC#Cc1ccc(C(=O)N2CCN(C(C)C)CC2)cc1)c1cccc(F)c1 [LMT-886, N-(3-fluorophenyl)-N-(3-(4-(4-isopropylpiperazine-1-carbonyl)phenyl)prop-2-ynyl)pentaneamide], the inhibition at 10 µM [1] was 99%.
With CCCCC(=O)N(CC#Cc1ccc(C(=O)NCCN(C)C)cc1)c1ccccc1 [LMT-1016, N-(2-(dimethylamino)ethyl)-4-(3-(N-phenylpentaneamido)prop-1-yn-1-yl)benzamide] the inhibition at 10 µM [1] was 99%.
CCCCC(=O)N(CC#Cc1ccc(C(=O)NC(C)C(=O)OC)cc1)c1ccccc1 (stereo not drawn) [LMT-1018, methyl 2-(4-(3-(N-phenylpentaneamido)prop-1-yn-1-yl)benzamido)propanoate] gave an inhibition at 10 µM [1] of 71.6%.
CCCCC(=O)N(CC#Cc1ccc(C(=O)NC(C)C(=O)O)cc1)c1ccccc1 (stereo not drawn) [LMT-1019, 2-(4-(3-(N-phenylpentaneamido)prop-1-yn-1-yl)benzamido)propanoic acid] was tested, and the inhibition at 10 µM [1] was 99%.
For CCc1cc(C(C)=O)c(O)cc1OCCCCCC(C)(C)c1nnn[nH]1 [LY255283, 1-[5-ethyl-2-hydroxy-4-[[6-methyl-6-(1H-tetrazol-5-yl)heptyl]oxy]phenyl]-ethanone, reference compound], the “cell growth compared with the control DMSO” value [1] was “approximately 90%”, the “chemotactic motility as compared with cells treated with the ligand LTB4” value (BLT2; 10 μM pre-treatment) was 90% and the “metastasis of the cancer cells inhibited as compared with the control” value [2] was 36%.
For CCCCC/C=C\C[C@@H](O)/C=C/c1cccc(C[C@@H](O)CCCCO)n1 [U75302, reference compound], the “chemotactic motility as compared with cells treated with the ligand LTB4” value (BLT1) was 90% and the “metastasis of the cancer cells inhibited as compared with the control” value [2] was “not inhibited”.
With CC(C)(O)c1ccccc1CC[C@@H](SCC1(CC(=O)O)CC1)c1cccc(/C=C/c2ccc3ccc(Cl)cc3n2)c1 [montelukast, reference compound] the AHR reduced [3] was 64%.

Source: patent US10766857B2, “Compound having BLT inhibitory activity and composition, for preventing or treating inflammatory diseases, comprising same as active ingredient” (DONGGUK UNIVERSITY INDUSTRY-ACADEMIC COOPERATION FOUNDATION, priority 2015, dated 2020)
